The results in this text go back to the OligoGym collection.

Where “and” joins values, the source holds several entries; their conditions need not be identical. Equal entries are not always repeated. After the bases stand the sugars from the 5' end (letter, count) and the backbone: PS all phosphorothioate, else s phosphorothioate and o phosphodiester by linkage. Methylation of C is not given here. e = 2'-O-(2-methoxyethyl) (MOE); k = constrained ethyl (cEt); d = 2'-deoxy (DNA)

In this data set the target is APOL1. Conditions: ASO.

As to “TCTATTAGAGGGCTAG (sugars k2 d4 e4 k2 d4, PS)”, the target mRNA inhibition (A431, 2 µM) worked out at 44%. Sequence “AGTATTGTTTTTGTGG (sugars k2 d4 e4 k2 d4, PS)” had a target mRNA inhibition (A431, 2 µM) of 85%. “TGTATTTCTTGATGTG (sugars k3 d4 k3 e1 d5, PS)” returned a target mRNA inhibition (A431, 2 µM) of 87%.

“TAATTCTATTAGAGGG (sugars kkddddkekekddddd, PS)” gave a target mRNA inhibition (A431, 2 µM) of 34%. Consider “GTTATATTTGATCCTC (sugars k2 d4 e3 k2 d5, PS)”, for which the target mRNA inhibition came to 2% (A431, 0.0156 µM); 31% (A431, 0.0625 µM); 67% (A431, 0.25 µM); 89% (A431, 1 µM); 93% (A431, 2 µM). Consider “ATCAGATGGGTACTTC (sugars kkddddkekekkdddd, PS)”, for which the target mRNA inhibition (A431, 2 µM) was determined as 45%. Turning to “CGTCAATATATTCTTT (sugars kkkddddkekekdddd, PS)”, the target mRNA inhibition was 25% (A431, 0.0156 µM); 55% (A431, 0.0625 µM); 84% (A431, 0.25 µM); 93% (A431, 1 µM); 94% (A431, 2 µM).

Turning to “TTATGAAATTATTGGT (sugars kkddddkekekkdddd, PS)”, the target mRNA inhibition (A431, 2 µM) came to 63%. Consider “GTTATATTTGATCCTC (sugars kkddddekekeddddd, PS)”, for which the target mRNA inhibition runs as follows: (A431, 0.0156 µM) 8%; (A431, 0.0625 µM) 37%; (A431, 0.25 µM) 69%; (A431, 1 µM) 64%; (A431, 2 µM) 96%. “GGCATTCAGAATTTCC (sugars kkddddkekekddddd, PS)” registered a target mRNA inhibition (A431, 2 µM) of 46%. Consider AGGTTGTCCAGAGCTT (sugars k4 d9 k3, PS), for which the target mRNA inhibition is, setting by setting: (A431, 0.0625 µM) 51%; (A431, 0.25 µM) 60%; (A431, 1 µM) 69%. Sequence “GAGTATTGTTTTTGTG (sugars kkddddkekekkdddd, PS)” came in with a target mRNA inhibition (A431, 2 µM) of 85%. Turning to “AGTATTGCCAGCTAAG (sugars kkddddekekeddddd, PS)”, the target mRNA inhibition (A431, 2 µM) worked out at 78%. On to “CACATCATTGGGTTAT (sugars kkddddekekeddddd, PS)”, for which, where the note is “A431, 2 µM”, the target mRNA inhibition worked out at 81%.

The sequence “ATTCTATTAGAGGGCT (sugars k3 d5 k3 d5, PS)” came in with a target mRNA inhibition (A431, 2 µM) of 95%.

Regarding “TGTTCTAACTCTTGGG (sugars kkkddddkekeddddd, PS)”, the target mRNA inhibition (A431, 2 µM) was 88%.

As to CTATTAGAGGGCTAGT (sugars k4 d9 k3, PS), the target mRNA inhibition by setting is: (A431, 0.0625 µM) 32% and 19%; (A431, 0.25 µM) 52% and 39%; (A431, 1 µM) 71% and 51%.

In turn, “TGTTATATTTGATCCT (sugars kkddddkekekddddd, PS)” returned a target mRNA inhibition (A431, 2 µM) of 81%.

On to “CATTCAGAATTTCCAC (sugars kkddddekekeddddd, PS)”, for which the target mRNA inhibition (A431, 2 µM) stood at 87%.

“CAGATGGGTACTTCTG (sugars kkddddkekekkdddd, PS)” had a target mRNA inhibition (A431, 2 µM) of 10%. Take “GTATTGCCAGCTAAGG (sugars kddddkekekeddddd, PS)”: the target mRNA inhibition (A431, 2 µM) was found to be 70%.

For the setting “A431, 2 µM”, “CGTCAATATATTCTTT (sugars kkddddkdkdkddddd, PS)” displayed a target mRNA inhibition of 91%. For the setting “A431, 2 µM”, “AAGATTGGCTCTGGCT (sugars kkdddddkekeddddd, PS)” had a target mRNA inhibition of 65%. On to ATAATGGTAGGTCTAC (sugars k4 d9 k3, PS), for which the target mRNA inhibition amounted to 42% (A431, 0.0625 µM); 78% (A431, 0.25 µM); 90% (A431, 1 µM). TCAGGTGACTACATTT (sugars k4 d9 k3, PS) gave a target mRNA inhibition (A431, 0.0625 µM) of 47%; a target mRNA inhibition (A431, 0.25 µM) of 67%; a target mRNA inhibition (A431, 1 µM) of 84%. In the case of TATTGGTTCAAAAGCA (sugars k4 d9 k3, PS), the target mRNA inhibition was determined as 29% (A431, 0.0625 µM); 67% (A431, 0.25 µM); 86% (A431, 1 µM). Regarding “GAGTATTGTTTTTGTG (sugars kkdddddkekeddddd, PS)”, the target mRNA inhibition was determined as 33% (A431, 0.0156 µM); 75% (A431, 0.0625 µM); 91% (A431, 0.25 µM); 96% (A431, 1 µM); 96% (A431, 2 µM). The sequence “GCTTTAAACTCAGGTG (sugars k2 d4 e3 k2 d5, PS)” gave a target mRNA inhibition (A431, 2 µM) of 91%. Sequence “TAAGTATTGCCAGCTA (sugars k3 d4 k3 e1 d5, PS)” gave a target mRNA inhibition (A431, 2 µM) of 65%. With “GCTAATTTTCTGACTG (sugars kkdddddkekeddddd, PS)”, the target mRNA inhibition is, setting by setting: (A431, 0.0156 µM) 11%; (A431, 0.0625 µM) 47%; (A431, 0.25 µM) 82%; (A431, 1 µM) 94%; (A431, 2 µM) 99%. “TCTCATGGTACAGGAG (sugars kddddkekekeddddd, PS)” showed a target mRNA inhibition (A431, 2 µM) of 55%.

“TTCTCATGGTACAGGA (sugars k2 d4 e3 k2 d5, PS)”: the target mRNA inhibition (A431, 2 µM) came to 86%. Still for that read-out and setting: the value for “CTTTAAACTCAGGTGA (sugars kkdddddkekeddddd, PS)” was 87%.

“ATTCTATTAGAGGGCT (sugars kkddddkdkdkddddd, PS)” registered a target mRNA inhibition (A431, 2 µM) of 74%.

As for “CGTCAATATATTCTTT (sugars k3 d4 k3 e1 d5, PS)”, the target mRNA inhibition runs as follows: (A431, 1 µM) 96% and 95%; (A431, 2 µM) 95%.

Where the note is “A431, 2 µM”, “AAGATTGGCTCTGGCT (sugars k3 d4 k3 e1 d5, PS)” yielded a target mRNA inhibition of 35%. For the sequence TAATTCTATTAGAGGG (sugars k4 d9 k3, PS), the target mRNA inhibition (A431, 0.0625 µM) is 17%; the target mRNA inhibition (A431, 0.25 µM) came out at 45%; the target mRNA inhibition (A431, 1 µM) stood at 69%. Take “TTATTCTCATGGTACA (sugars kkkddddkekekdddd, PS)”: the target mRNA inhibition (A431, 2 µM) is 53%. In turn, “GAAGATTGGCTCTGGC (sugars kkddddkekekddddd, PS)” displayed a target mRNA inhibition (A431, 2 µM) of 48%. On the same count and under the same terms, the value for “CATTCAGAATTTCCAC (sugars kkddddkekekkdddd, PS)” was 57%; that for “CACTTTATACCAGTGT (sugars k2 d4 e3 k2 d5, PS)” was 0%; that for “TATATTTGATCCTCAA (sugars kkddddkekekkdddd, PS)” was 77%. In turn, “AGTATTGCCAGCTAAG (sugars kkddddkekekddddd, PS)” displayed a target mRNA inhibition (A431, 2 µM) of 65%. “GAATTATGGAATTGCA (sugars k3 d4 k3 e1 d5, PS)” came in with a target mRNA inhibition (A431, 2 µM) of 90%. “TGTTCTAACTCTTGGG (sugars k2 d4 e3 k2 d5, PS)” came in with a target mRNA inhibition (A431, 0.0156 µM) of 24%; a target mRNA inhibition (A431, 0.0625 µM) of 61%; a target mRNA inhibition (A431, 0.25 µM) of 84%; a target mRNA inhibition (A431, 1 µM) of 93%; a target mRNA inhibition (A431, 2 µM) of 97%. On to “GGAATTATGGAATTGC (sugars k3 d4 k3 e1 d5, PS)”, for which the target mRNA inhibition (A431, 2 µM) came out at 65%.

Regarding “AAGATTGGCTCTGGCT (sugars kkkddddkekekdddd, PS)”, the target mRNA inhibition (A431, 2 µM) was 23%.

On to “ATTCTATTAGAGGGCT (sugars kkkddddkdkdkdddd, PS)”, for which the target mRNA inhibition (A431, 2 µM) worked out at 78%. CCACTTGAGTCATTTG (sugars k4 d9 k3, PS): the target mRNA inhibition worked out at 40% (A431, 0.0625 µM); 72% (A431, 0.25 µM); 90% (A431, 1 µM).
